{
  "source": "patent US4325949A",
  "about": "“Combinations of agents which give enhanced anti-inflammatory activity” (American Cyanamid Company, priority 1980, dated 1982)",
  "key": {"[1]": {"assay": "body weight gain in the adjuvant induced arthritis test in the rat", "type": "in vivo, rat (Royal Hart, Wistar strain)", "method": "(§1) Groups of three Royal Hart, Wistar strain rats, weighing 200±10 g. each were injected intradermally in the right hind paw with Freund's adjuvant (dried human tubercle bacilli in a mineral oil vehicle) at a dose of 2 mg./kg. of body weight. Test compositions were administered orally in a 1.5% starch vehicle at various doses once daily on days 0 through 13 post challenge. Control rats were treated in a similar manner, but given only starch vehicle. On the 14th, 21st, 28th and 35th days post challenge the diameter of the injected paw (primary lesion) was measured by micrometer caliper. The volume of inflamed paws were estimated from these measurements and the results are expressed as percent inhibition of swelling as compared to controls. At the same time, the other inflamed sites, such as ears, paws and tail (secondary lesions) were observed and each rat was graded as to degree of inflammation and swelling present. The grading is based on a scale of 0 to 24, where 0 represents a complete absence of induced arthritic modules and 24 represents the maximum degree of inflammation. The mean grade for each treated group is calculated and the effects of each test compound are expressed as percent inhibition of the control grade. The following Tables I-V record the results of tests conducted with the compositions of this invention and conventional anti-inflammatory agents both separately and in combination. All tests were replicated several times. Each treatment group represents a total of 18 rats. Each challenged control group comprised 36 rats and each unchallenged control group was 9 rats."}, "[2]": {"tested_on": "arthritic paw swelling", "details": "S. Wong et al. 1973; G. R. Bobalick et al. 1974; cited from earlier work"}, "[3]": {"tested_on": "adjuvant induced arthritis", "assay": "adjuvant induced arthritis test in the rat (primary and secondary lesions)", "type": "in vivo, rat (Royal Hart, Wistar strain)", "method": "as §1"}, "[4]": {"details": "oral 0.25 mg/kg once daily, day 14, 0.25 mg/kg"}, "[5]": {"details": "oral 0.5 mg/kg once daily, day 14, 0.5 mg/kg"}, "[6]": {"details": "oral 0.5 mg/kg once daily, day 21, 0.5 mg/kg"}, "[7]": {"details": "oral 1.0 mg/kg once daily, day 14, 1 mg/kg"}, "[8]": {"details": "oral 1.0 mg/kg once daily, day 21, 1 mg/kg"}},
  "note": "Where “and” joins values, the source holds several entries; their conditions need not be identical. Equal values may be shown once.",
  "data": [
    {"smiles": "COc1ccc2c(c1)c(CC(=O)O)c(C)n2C(=O)c1ccc(Cl)cc1", "note": "[Indomethacin, 1-(4-chlorobenzoyl)-5-methoxy-2-methyl-1H-indole-3-acetic acid, reference compound]", "values": [
      {"measurement": "Body Weight Gain in Grams", "setting": "[1]; [4]", "result": "59 Grams and 43 Grams"},
      {"measurement": "Body Weight Gain in Grams", "setting": "[1]; oral 0.25 mg/kg once daily, day 21, 0.25 mg/kg", "result": "45 Grams and 46 Grams"},
      {"measurement": "Body Weight Gain in Grams", "setting": "[1]; [5]", "result": "71 Grams and 61 Grams"},
      {"measurement": "Body Weight Gain in Grams", "setting": "[1]; [6]", "result": "57 Grams and 51 Grams"},
      {"measurement": "Body Weight Gain in Grams", "setting": "[1]; [7]", "result": "92 Grams and 76 Grams"},
      {"measurement": "Body Weight Gain in Grams", "setting": "[1]; [8]", "result": "84 Grams and 70 Grams"},
      {"measurement": "arthritic paw swelling", "setting": "[2]", "result": "inhibit arthritic paw swelling"},
      {"measurement": "joint and bone deterioration", "setting": "[2]", "result": "prevent joint and bone deterioration"},
      {"measurement": "Primary Lesions (% Inhibition)", "setting": "[3]; [4]", "result": "29% and 44%"},
      {"measurement": "Secondary Lesions (% Inhibition)", "setting": "[3]; [4]", "result": "22% and 25%"},
      {"measurement": "Primary Lesions (% Inhibition)", "setting": "[3]; [5]", "result": "50% and 41%"},
      {"measurement": "Primary Lesions (% Inhibition)", "setting": "[3]; oral 0.5 mg/kg once daily, day 21", "result": 8, "unit": "%"},
      {"measurement": "Secondary Lesions (% Inhibition)", "setting": "[3]; [6]", "result": "10% and 3%"},
      {"measurement": "Primary Lesions (% Inhibition)", "setting": "[3]; [7]", "result": "63% and 57%"},
      {"measurement": "Secondary Lesions (% Inhibition)", "setting": "[3]; [7]", "result": "54% and 48%"},
      {"measurement": "Primary Lesions (% Inhibition)", "setting": "[3]; [8]", "result": "27% and 24%"},
      {"measurement": "Secondary Lesions (% Inhibition)", "setting": "[3]; [8]", "result": "30% and 27%"}
    ]}
  ]
}
